These results are taken from the supplement of paper PMC10307832.

Holding throughout (assay): relative viability (nuclei count vs DMSO), 5 days (fraction); higher = more cells survive
Compound in experiment [1]: Cn1c(Nc2ccc(C(F)(F)F)cc2)nc2cc(Oc3ccnc(-c4ncc(C(F)(F)F)[nH]4)c3)ccc21 [RAF265] + COc1cc2c(Oc3ccc(NC(=O)C4(C(=O)Nc5ccc(F)cc5)CC4)cc3F)ccnc2cc1OCCCN1CCOCC1 [Foretinib] (partner 0.25 µM)
The method in brief: (§1)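 One day after seeding in 1536-well plates, lung cancer cell lines were dosed by pin tool. Dosing was either single-drug or a fixed anchor-drug dose plus five library-drug doses (not always all listed) in √10 steps. After 5 days, nuclei were stained in one fix-and-stain step and counted on 4× images, and relative viability is the nuclei count of treated wells over that of vehicle wells, given as the median of duplicate plates.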

Compound in experiment [2]: Cn1c(Nc2ccc(C(F)(F)F)cc2)nc2cc(Oc3ccnc(-c4ncc(C(F)(F)F)[nH]4)c3)ccc21 [RAF265] + CS(=O)(=O)N1CCN(Cc2cc3nc(-c4cccc5[nH]ncc45)nc(N4CCOCC4)c3s2)CC1 [Pictilisib] (partner 1 µM)
The method in brief:
as §1

Compound in experiment [3]: Cc1ccc(-n2nc(C(C)(C)C)cc2NC(=O)Nc2ccc(OCCN3CCOCC3)c3ccccc23)cc1 [Doramapimod] + COc1cccc2cc(-c3nc([C@H]4CC[C@H](C(=O)O)CC4)n4ncnc(N)c34)[nH]c12 [OSI-027] (partner 0.5 µM)
The procedure, abridged: as §1

Compound in experiment [4]: Cn1c(Nc2ccc(C(F)(F)F)cc2)nc2cc(Oc3ccnc(-c4ncc(C(F)(F)F)[nH]4)c3)ccc21 [RAF265] + CC(=O)c1c(C)c2cnc(Nc3ccc(N4CCNCC4)cn3)nc2n(C2CCCC2)c1=O [Palbociclib] (partner 0.5 µM)
The procedure, abridged: as §1

For COR-L 105, the relative viability came to 1.29 in experiment [1] (first compound 0.01 µM); 1.5 in experiment [1] (first compound 0.03162 µM); 1.1 in experiment [1] (first compound 0.1 µM); 1.15 in experiment [1] (first compound 0.3162 µM); 0.614 in experiment [1] (first compound 1 µM); 0.487 in experiment [2] (first compound 0.01 µM). In addition, the relative viability was 0.316 in experiment [2] (first compound 0.03162 µM); 0.383 in experiment [2] (first compound 0.1 µM); 0.292 in experiment [2] (first compound 0.3162 µM); 0.307 in experiment [2] (first compound 1 µM); 0.799 in experiment [3] (first compound 0.02 µM); 0.745 in experiment [3] (first compound 0.06325 µM). Besides, the relative viability is 0.703 in experiment [3] (first compound 0.2 µM); 0.771 in experiment [3] (first compound 0.6325 µM); 0.612 in experiment [3] (first compound 2 µM); 0.425 in experiment [4] (first compound 0.01 µM); 0.36 in experiment [4] (first compound 0.03162 µM); 0.385 in experiment [4] (first compound 0.1 µM). Besides, the relative viability in experiment [4] (first compound 0.3162 µM) was determined as 0.371; in experiment [4] (first compound 1 µM) it was 0.358.

In the case of Calu-6, the relative viability in experiment [1] (first compound 0.01 µM) amounted to 0.899; in experiment [1] (first compound 0.03162 µM) it was 0.782; in experiment [1] (first compound 0.1 µM), 0.763; in experiment [1] (first compound 0.3162 µM), 0.428; in experiment [1] (first compound 1 µM), 0.29; in experiment [2] (first compound 0.01 µM) it was 0.87. Also, the relative viability in experiment [2] (first compound 0.03162 µM) was determined as 0.594; in experiment [2] (first compound 0.1 µM), 0.462; in experiment [2] (first compound 0.3162 µM) it was 0.306; in experiment [2] (first compound 1 µM) it was 0.209.

ChaGo-K-1: the relative viability in experiment [1] (first compound 0.01 µM) stood at 0.969; in experiment [1] (first compound 0.03162 µM), 0.827; in experiment [1] (first compound 0.1 µM), 0.825; in experiment [1] (first compound 0.3162 µM) it was 0.819; in experiment [1] (first compound 1 µM) it was 0.646; in experiment [2] (first compound 0.01 µM) it was 0.786. In addition, the relative viability in experiment [2] (first compound 0.03162 µM) was determined as 0.833; in experiment [2] (first compound 0.1 µM) it was 0.8; in experiment [2] (first compound 0.3162 µM), 0.765; in experiment [2] (first compound 1 µM), 0.56; in experiment [3] (first compound 0.02 µM), 0.632; in experiment [3] (first compound 0.06325 µM) it was 0.607. Besides, the relative viability in experiment [3] (first compound 0.2 µM) came out at 0.63; in experiment [3] (first compound 0.6325 µM) it was 0.518; in experiment [3] (first compound 2 µM), 0.409; in experiment [4] (first compound 0.01 µM) it was 0.935; in experiment [4] (first compound 0.03162 µM) it was 0.951; in experiment [4] (first compound 0.1 µM) it was 0.89. The relative viability is 0.844 in experiment [4] (first compound 0.3162 µM) and 0.607 in experiment [4] (first compound 1 µM).

Take EBC-1: the relative viability turned out to be 0.101 in experiment [1] (first compound 0.01 µM); 0.112 in experiment [1] (first compound 0.03162 µM); 0.0984 in experiment [1] (first compound 0.1 µM); 0.107 in experiment [1] (first compound 0.3162 µM); 0.113 in experiment [1] (first compound 1 µM); 0.375 in experiment [2] (first compound 0.01 µM). The relative viability in experiment [2] (first compound 0.03162 µM) stood at 0.386; in experiment [2] (first compound 0.1 µM) it was 0.233; in experiment [2] (first compound 0.3162 µM), 0.317; in experiment [2] (first compound 1 µM), 0.221.

Consider EKVX, for which the relative viability in experiment [1] (first compound 0.01 µM) was found to be 1.21; in experiment [1] (first compound 0.03162 µM), 0.676; in experiment [1] (first compound 0.1 µM), 0.963; in experiment [1] (first compound 0.3162 µM) it was 0.419; in experiment [1] (first compound 1 µM), 0.715; in experiment [2] (first compound 0.01 µM), 0.425. For the same cell line, the relative viability in experiment [2] (first compound 0.03162 µM) worked out at 0.414; in experiment [2] (first compound 0.1 µM), 0.429; in experiment [2] (first compound 0.3162 µM), 0.242; in experiment [2] (first compound 1 µM) it was 0.334; in experiment [3] (first compound 0.02 µM) it was 0.718; in experiment [3] (first compound 0.06325 µM), 0.684. The relative viability came out at 0.679 in experiment [3] (first compound 0.2 µM); 0.671 in experiment [3] (first compound 0.6325 µM); 0.698 in experiment [3] (first compound 2 µM); 0.429 in experiment [4] (first compound 0.01 µM); 0.405 in experiment [4] (first compound 0.03162 µM); 0.416 in experiment [4] (first compound 0.1 µM). In addition, the relative viability in experiment [4] (first compound 0.3162 µM) is 0.249; in experiment [4] (first compound 1 µM) it was 0.276.

On to EMC-BAC-2, for which the relative viability came to 1.09 in experiment [1] (first compound 0.01 µM); 0.741 in experiment [1] (first compound 0.03162 µM); 0.753 in experiment [1] (first compound 0.1 µM); 0.685 in experiment [1] (first compound 0.3162 µM); 0.276 in experiment [1] (first compound 1 µM); 0.494 in experiment [2] (first compound 0.01 µM). The relative viability in experiment [2] (first compound 0.03162 µM) amounted to 0.513; in experiment [2] (first compound 0.1 µM) it was 0.496; in experiment [2] (first compound 0.3162 µM), 0.386; in experiment [2] (first compound 1 µM), 0.228; in experiment [3] (first compound 0.02 µM), 0.379; in experiment [3] (first compound 0.06325 µM) it was 0.396. Besides, the relative viability in experiment [3] (first compound 0.2 µM) worked out at 0.445; in experiment [3] (first compound 0.6325 µM) it was 0.571; in experiment [3] (first compound 2 µM), 0.43; in experiment [4] (first compound 0.01 µM), 0.533; in experiment [4] (first compound 0.03162 µM), 0.431; in experiment [4] (first compound 0.1 µM), 0.373. Moreover, the relative viability in experiment [4] (first compound 0.3162 µM) stood at 0.345; in experiment [4] (first compound 1 µM), 0.176.

In the case of EPLC-272H, the relative viability in experiment [1] (first compound 0.01 µM) was determined as 0.721; in experiment [1] (first compound 0.03162 µM), 0.39; in experiment [1] (first compound 0.1 µM), 0.506; in experiment [1] (first compound 0.3162 µM), 0.208; in experiment [1] (first compound 1 µM), 0.135; in experiment [2] (first compound 0.01 µM) it was 0.35. In addition, the relative viability in experiment [2] (first compound 0.03162 µM) stood at 0.349; in experiment [2] (first compound 0.1 µM), 0.311; in experiment [2] (first compound 0.3162 µM) it was 0.237; in experiment [2] (first compound 1 µM), 0.191; in experiment [3] (first compound 0.02 µM), 0.32; in experiment [3] (first compound 0.06325 µM) it was 0.297. Further, the relative viability in experiment [3] (first compound 0.2 µM) amounted to 0.306; in experiment [3] (first compound 0.6325 µM), 0.316; in experiment [3] (first compound 2 µM), 0.295; in experiment [4] (first compound 0.01 µM) it was 0.334; in experiment [4] (first compound 0.03162 µM) it was 0.291; in experiment [4] (first compound 0.1 µM), 0.352. Further, the results for the relative viability in experiment [4] (first compound 0.3162 µM) and in experiment [4] (first compound 1 µM) were 0.287 and 0.269, respectively.

H3255: the relative viability in experiment [1] (first compound 0.01 µM) was 0.88; in experiment [1] (first compound 0.03162 µM), 0.88; in experiment [1] (first compound 0.1 µM) it was 0.847; in experiment [1] (first compound 1 µM) it was 0.55; in experiment [2] (first compound 0.01 µM) it was 0.494; in experiment [2] (first compound 0.03162 µM), 0.512. In addition, the relative viability in experiment [2] (first compound 0.1 µM) worked out at 0.522; in experiment [2] (first compound 0.3162 µM), 0.132; in experiment [2] (first compound 1 µM) it was 0.336; in experiment [3] (first compound 0.02 µM) it was 0.684; in experiment [3] (first compound 0.06325 µM) it was 0.618; in experiment [3] (first compound 0.2 µM), 0.526. The relative viability came out at 0.679 in experiment [3] (first compound 0.6325 µM); 0.518 in experiment [3] (first compound 2 µM); 0.323 in experiment [4] (first compound 0.01 µM); 0.316 in experiment [4] (first compound 0.03162 µM); 0.321 in experiment [4] (first compound 0.1 µM); 0.331 in experiment [4] (first compound 1 µM).
